# The source made the active and inactive calls. The rule behind the calls is not given here. Numbered stars: 1 amine (or outer) side, 2 acyl side, 3 side chain; on linkers, the order of the positions; unused ones are H or OH. Bridge positions count the residues as written; N and C are the ends. Square brackets hold non-standard residues; d marks the D form. Peptide text beside a SMILES is read from it. * marks the point of attachment. hTyr(3S-OH,4S-OH,3'-OSO3H) = N[C@H](C(=O)O)[C@H](O)[C@@H](O)c1ccc(O)c(OS(=O)(=O)O)c1; pTerphenylCO(4''-OnC5H11) = CCCCCOc1ccc(-c2ccc(-c3ccc(C(=O)*)cc3)cc2)cc1; Orn(4R-OH,5R-OH) = O=C([C@H](C[C@@H](O)[C@@H](O)N[*:3])N[*:1])[*:2]; hTyr(3S-OH,4S-OH) = N[C@H](C(=O)O)[C@H](O)[C@@H](O)c1ccc(O)cc1; Pro(3S-OH,4S-Me) = C[C@H]1CN[C@H](C(=O)O)[C@H]1O; X1 = CCCCCOc1ccc(-c2cc(-c3ccc(C(=O)*)cc3)no2)cc1; Gln(3R-OH) = NC(=O)C[C@@H](O)[C@H](N)C(=O)O; Hyp = O=C(O)[C@@H]1C[C@@H](O)CN1
# How the values were obtained:
# Candida orthopsilosis [1] = test: Antifungal activity against Candida orthopsilosis clinical isolate bloodstream form assessed as minimum concentration required for => 3-log decrease in fungal growth after 12 to 48 hrs by time-kill assay; format: functional
# Candida metapsilosis [2] = test: Antifungal activity against Candida metapsilosis clinical isolate bloodstream form assessed as induction of miniparadoxical effect at 16 mg/L after 48 hrs by time-kill assay; format: functional, organism-based
# Candida parapsilosis [3] = test: Antifungal activity against Candida parapsilosis clinical isolate bloodstream form assessed as minimum concentration required for => 3-log decrease in fungal growth after 12 to 48 hrs by time-kill assay; format: functional
# Candida orthopsilosis [4] = test: Antifungal activity against Candida orthopsilosis clinical isolate bloodstream form assessed as induction of miniparadoxical effect at 16 mg/L after 48 hrs by time-kill assay; format: functional, organism-based
# Candida metapsilosis [5] = test: Antifungal activity against Candida metapsilosis clinical isolate bloodstream form assessed as induction of maximal fungal death at 32 mg/L after 48 hrs by time-kill assay; format: functional, organism-based
# Candida parapsilosis [6] = test: Antifungal activity against Candida parapsilosis clinical isolate bloodstream form assessed as induction of maximal fungal death at 8 mg/L after 48 hrs by time-kill assay; format: functional, organism-based
# Candida metapsilosis [7] = test: Antifungal activity against Candida metapsilosis clinical isolate bloodstream form assessed as induction of miniparadoxical effect at 32 mg/L after 48 hrs by time-kill assay; format: functional, organism-based
smiles,measurement,setting,value
CC[C@H](C)C[C@H](C)CCCCCCCCC(=O)N[C@H]1C[C@@H](O)[C@@H](NCCN)NC(=O)[C@@H]2[C@@H](O)CCN2C(=O)[C@H]([C@H](O)CCN)NC(=O)[C@H]([C@H](O)[C@@H](O)c2ccc(O)cc2)NC(=O)[C@@H]2C[C@@H](O)CN2C(=O)[C@H]([C@@H](C)O)NC1=O [CASPOFUNGIN],MED,Candida orthopsilosis [1],14 mg/L
same,Activity,Candida metapsilosis [2],Active
same,MED,Candida parapsilosis [3],14 mg/L
same,Activity,Candida orthopsilosis [4],Active
"CCCCCOc1ccc(-c2cc(-c3ccc(C(=O)N[C@H]4C[C@@H](O)[C@@H](O)NC(=O)[C@@H]5[C@@H](O)[C@@H](C)CN5C(=O)[C@H]([C@H](O)CC(N)=O)NC(=O)[C@H]([C@H](O)[C@@H](O)c5ccc(O)c(OS(=O)(=O)O)c5)NC(=O)[C@@H]5C[C@@H](O)CN5C(=O)[C@H]([C@@H](C)O)NC4=O)cc3)no2)cc1 [MICAFUNGIN] (X1-[Orn(4R-OH,5R-OH)]T[Hyp][hTyr(3S-OH,4S-OH,3'-OSO3H)][Gln(3R-OH)][Pro(3S-OH,4S-Me)]; lactam 1-C)",Activity,Candida metapsilosis [5],Active
"CCCCCOc1ccc(-c2ccc(-c3ccc(C(=O)N[C@H]4C[C@@H](O)[C@@H](O)NC(=O)[C@@H]5[C@@H](O)[C@@H](C)CN5C(=O)[C@H]([C@@H](C)O)NC(=O)[C@H]([C@H](O)[C@@H](O)c5ccc(O)cc5)NC(=O)[C@@H]5C[C@@H](O)CN5C(=O)[C@H]([C@@H](C)O)NC4=O)cc3)cc2)cc1 [ANIDULAFUNGIN] ({pTerphenylCO(4''-OnC5H11)}-[Orn(4R-OH,5R-OH)]T[Hyp][hTyr(3S-OH,4S-OH)]T[Pro(3S-OH,4S-Me)]; lactam 1-C)",Activity,Candida parapsilosis [6],Active
same,Activity,Candida metapsilosis [7],inactive

# Source: ChEMBL document CHEMBL1255421, “In vitro fungicidal activities of echinocandins against Candida metapsilosis, C. orthopsilosis, and C. parapsilosis evaluated by time-kill studies” (2010)
